Test results reported in the supplement of paper PMC11616607.

What was measured:
Assay in all cases: drug sensitivity score (DSS) from 5-point dose-response viability curve (DSS (area-under-curve based score)); higher = more sensitive (stronger growth inhibition or killing); extreme values may be limits of the assay
Conditions in all cases: exposure time: 72 h; concentration range: 5 concentrations over 10,000-fold range
CAOV3 = test system: CAOV3
Outline: (§1)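 Drugs in DMSO or water were acoustically dispensed (Echo 550) into 384-well plates at five concentrations across a 10,000-fold range. Ovarian cancer and normal ovarian cells (1,500 per well) were then added, incubated for 3 days at 37°C with 5% CO2, and read for viability by CellTiter-Glo luminescence on a PHERAstar FS. From these readings, Breeze software derived a drug sensitivity score per cell line and drug, with higher values meaning more sensitive and zero meaning no response.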

COV318 = test system: COV318
Outline: as §1

COV362 = test system: COV362
Outline: as §1

HOSE1C = test system: HOSE1C
Outline: as §1

HOSE2C = test system: HOSE2C
Outline: as §1

JHOS2 = test system: JHOS2
Outline: as §1

Kuramochi = test system: Kuramochi
Outline: as §1

OV90 = test system: OV90
Outline: as §1

OVCAR4 = test system: OVCAR4
Outline: as §1

OVCAR5 = test system: OVCAR5
Outline: as §1

OVCAR8 = test system: OVCAR8
Outline: as §1

Ovsaho = test system: Ovsaho
Outline: as §1

SMILES | drug sensitivity score (CAOV3) | drug sensitivity score (COV318) | drug sensitivity score (COV362) | drug sensitivity score (HOSE1C) | drug sensitivity score (HOSE2C) | drug sensitivity score (JHOS2) | drug sensitivity score (Kuramochi) | drug sensitivity score (OV90) | drug sensitivity score (OVCAR4) | drug sensitivity score (OVCAR5) | drug sensitivity score (OVCAR8) | drug sensitivity score (Ovsaho)
CC[C@@H]1C(=O)N(C)c2cnc(Nc3ccc(C(=O)N[C@H]4CC[C@H](N5CCN(CC6CC6)CC5)CC4)cc3OC)nc2N1C(C)C [Volasertib] | 13.1 | 4.1 | 3.2 | 9.7 | 6.3 | 7.1 | 7.3 | 11.5 | 4.4 | 12.2 | 15.5 | 10.4
CCC(C)n1ncn(-c2ccc(N3CCN(c4ccc(OCC5COC(Cn6cncn6)(c6ccc(Cl)cc6Cl)O5)cc4)CC3)cc2)c1=O (stereo not drawn) [Itraconazole] | 0 | 0.9 | 0.6 | 0 | 0 | 0.2 | 1.1 | 4.1 | 2.1 | 5.9 | 1.9 | 0.2
CC#CC(=O)N1CC[C@@H](n2c(=O)n(-c3ccc(Oc4ccccc4)cc3)c3c(N)ncnc32)C1 [Tirabrutinib] | 1.6 | 0 | 0 | 0 | 0 | 0 | 1.3 | 0 | 0 | 0.8 | 0 | 0.3
CS(=O)(=O)N1CCN(Cc2cc3nc(-c4cccc5[nH]ncc45)nc(N4CCOCC4)c3s2)CC1 [Pictilisib] | 9.8 | 5.3 | 5.9 | 6.8 | 8.2 | 3.8 | 10.6 | 6.2 | 5.3 | 12.1 | 8.3 | 9.5
Nc1ncn([C@@H]2O[C@H](CO)[C@@H](O)[C@H]2O)c(=O)n1 [Azacitidine] | 1.7 | 1.1 | 0.7 | 0 | 0 | 4.4 | 0.9 | 3.8 | 1.6 | 2.2 | 3.4 | 3.5
O=C(c1cccc(Cl)c1F)N1CCN(Cc2cccc(Nc3nccs3)n2)CC1 [MK-8745] | 4.9 | 0 | 0 | 2.1 | 3.5 | 0 | 0.4 | 0.5 | 1.1 | 7.8 | 8 | 0.2
C[C@@]1(C(=O)Nc2ccc(F)nc2)CCCN1c1nc(Nc2cc(C3CC3)n[nH]2)c2cccn2n1 | 20.2 | 3.1 | 6.5 | 8.9 | 18.7 | 3.3 | 4.8 | 7.4 | 7.2 | 14.4 | 5.2 | 7.5
C[C@@H]1C=C2C(=O)O[C@@H]3CC[C@H](C1)[C@]23O [Galiellalactone] | 6.1 | 3.8 | 2.9 | 8.1 | 7.3 | 5.6 | 0 | 7.1 | 6.5 | 7.6 | 3.6 | 4.6
CN[C@@H](C)C(=O)N[C@H](C(=O)N1CCC[C@H]1c1nc(C(=O)c2ccc(F)cc2)cs1)C1CCCCC1 [NVP-LCL161] | 14.4 | 0.8 | 1.9 | 0.7 | 0 | 9.1 | 1.9 | 5 | 16.4 | 4.1 | 8.5 | 8.6
Cc1cc(C)c(CNC(=O)c2cc(-c3ccc(CN4CCOCC4)cc3)cc3c2cnn3C2CCCC2)c(=O)[nH]1 [EPZ-5687] | 0 | 0 | 1.1 | 0 | 0 | 0 | 0 | 0 | 0 | 1.8 | 0 | 0
CNC(=O)c1ccc(-c2cnc3ncc(Cc4ccc5ncccc5c4)n3n2)cc1F [Capmatinib] | 0 | 0 | 0 | 0 | 0 | 0 | 0.1 | 0 | 0 | 0 | 0 | 0
CC(C)[C@H]1C(=O)N[C@@H](CCCNC(=N)N)C(=O)NCC(=O)N[C@@H](CC(=O)O)C(=O)N[C@H](Cc2ccccc2)C(=O)N1C [Cilengitide] | 0 | 0 | 5.6 | 0 | 3.5 | 1.6 | 5.4 | 2.5 | 2.9 | 1.1 | 0.2 | 17.7
C=CC(=O)Nc1cccc(Oc2nc(Nc3ccc(N4CCN(C)CC4)cc3)nc3ccsc23)c1 [Olmutinib] | 0.3 | 0.3 | 0.6 | 0 | 0 | 0 | 0.7 | 0 | 0.1 | 0.7 | 0 | 0.5
CC[C@]1(O)C[C@@H]2CN(CCc3c([nH]c4ccccc34)[C@@](C(=O)OC)(c3cc4c(cc3OC)N(C)[C@H]3[C@@](O)(C(=O)OC)[C@H](OC(C)=O)[C@]5(CC)C=CCN6CC[C@]43[C@@H]65)C2)C1 [Vinblastine] | 22.4 | 1.1 | 2.3 | 13.8 | 12.3 | 3.7 | 4.4 | 18.5 | 9.1 | 3 | 8.6 | 5.3
